From PubChem BioAssay (NCI)
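In this assay, cells in 96-well plates receive the compound at five concentrations for 48 hours. Endpoints are linearly interpolated between the surrounding concentrations. TGI: total growth inhibition.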

Tests used:
Experiment in all cases: DTP human tumour cell line panel, 48 h
[1] = system: CAKI-1 renal
[2] = system: XF 498 CNS
[3] = system: KM12 colon
[4] = system: KM20L2 colon
[5] = system: OVCAR-4 ovarian
[6] = system: SF-295 CNS
[7] = system: OVCAR-8 ovarian
[8] = system: DMS 114 small cell lung
[9] = system: NCI-H23 lung
[10] = system: NCI-H522 lung
[11] = system: RPMI-8226 leukemia
[12] = system: SK-MEL-2 melanoma
[13] = system: OVCAR-3 ovarian
[14] = system: SNB-78 CNS
[15] = system: DMS 273 small cell lung
[16] = system: M14 melanoma
[17] = system: HOP-18 NSCLC
[18] = system: SN12C renal
[19] = system: MOLT-4 leukemia
[20] = system: MALME-3M melanoma
[21] = system: HOP-62 NSCLC
[22] = system: SK-OV-3 ovarian
[23] = system: SF-539 CNS
[24] = system: HCT-116 colon
[25] = system: NCI-H226 lung
[26] = system: LOX IMVI melanoma
[27] = system: 786-0 renal
[28] = system: SK-MEL-28 melanoma
[29] = system: DLD-1 colon
[30] = system: IGROV1 ovarian
[31] = system: HT29 colon
[32] = system: EKVX NSCLC
[33] = system: SK-MEL-5 melanoma
[34] = system: SR leukemia
[35] = system: LXFL 529 NSCLC
[36] = system: SF-268 CNS
[37] = system: A498 renal
[38] = system: SNB-75 CNS
[39] = system: M19-MEL melanoma
[40] = system: HCT-15 colon
[41] = system: UACC-257 melanoma
[42] = system: ACHN renal
[43] = system: HCC-2998 colon
[44] = system: CCRF-CEM leukemia
[45] = system: SW-620 colon
[46] = system: OVCAR-5 ovarian
[47] = system: COLO 205 colon
[48] = system: RXF 393 renal
[49] = system: A549 NSCLC
[50] = system: TK-10 renal
[51] = system: K-562 leukemia
[52] = system: HL-60(TB) leukemia
[53] = system: UACC-62 melanoma
[54] = system: SNB-19 CNS
[55] = system: UO-31 renal
[56] = system: NCI-H460 lung
[57] = system: HOP-92 NSCLC
[58] = system: U251 CNS
[59] = system: RXF-631 renal

`COc1cc2c(oc(=O)c3c4oc([Si](C)(C)C)cc4cc(OC)c23)c2cccc(OCc3ccccc3)c12` showed a TGI [1] of 41.2 µM, a TGI [2] of 27 µM and a TGI [3] greater than 100 µM. The TGI [4] was greater than 100 µM, the TGI [5] was greater than 88.5 µM and the TGI [6] was 50.9 µM. It also gave a TGI [7] greater than 71.5 µM, a TGI [8] greater than 100 µM and a TGI [9] of 35.6 µM. For the same compound, the TGI [10] was greater than 100 µM, the TGI [11] was greater than 87 µM and the TGI [12] was greater than 100 µM. It also gave a TGI [13] greater than 77.9 µM, a TGI [14] of 91.6 µM and a TGI [15] of 72.8 µM. The TGI [16] was 61.3 µM, the TGI [17] was 63.8 µM and the TGI [18] was greater than 100 µM. It also gave a TGI [19] greater than 100 µM, a TGI [20] greater than 71.5 µM and a TGI [21] of 47.6 µM. For the same compound, the TGI [22] was greater than 73.2 µM, the TGI [23] was 56.5 µM and the TGI [24] was greater than 100 µM. For the same compound, the TGI [25] was greater than 94.4 µM, the TGI [26] was greater than 100 µM and the TGI [27] was 34.8 µM. For the same compound, the TGI [28] was greater than 85.9 µM, the TGI [29] was greater than 100 µM and the TGI [30] was greater than 100 µM. The TGI [31] was greater than 100 µM, the TGI [32] was greater than 100 µM and the TGI [33] was greater than 100 µM. For the same compound, the TGI [34] was greater than 100 µM, the TGI [35] was greater than 61.8 µM and the TGI [36] was greater than 70.7 µM. For the same compound, the TGI [37] was greater than 100 µM, the TGI [38] was 48 µM and the TGI [39] was greater than 100 µM. For the same compound, the TGI [40] was greater than 100 µM, the TGI [41] was greater than 100 µM and the TGI [42] was greater than 100 µM. The TGI [43] was greater than 100 µM, the TGI [44] was greater than 100 µM and the TGI [45] was greater than 100 µM. For the same compound, the TGI [46] was greater than 100 µM, the TGI [47] was greater than 100 µM and the TGI [48] was greater than 48.2 µM. The TGI [49] was greater than 100 µM, the TGI [50] was greater than 66.8 µM and the TGI [51] was greater than 100 µM. The TGI [52] was greater than 92 µM, the TGI [53] was 37.6 µM and the TGI [54] was 64.1 µM. It also gave a TGI [55] greater than 100 µM, a TGI [56] greater than 100 µM and a TGI [57] greater than 67.2 µM.

`COC(=O)/C(C)=C(/CCC1(C)OCCO1)O[Si](C)(C)C` was tested, and the TGI [1] was greater than 100 µM, the TGI [2] was greater than 100 µM and the TGI [3] was greater than 100 µM. For the same compound, the TGI [4] was greater than 100 µM, the TGI [5] was greater than 100 µM and the TGI [6] was greater than 100 µM. The TGI [7] was greater than 100 µM, the TGI [8] was greater than 100 µM and the TGI [9] was greater than 100 µM. For the same compound, the TGI [11] was greater than 100 µM, the TGI [12] was greater than 100 µM and the TGI [13] was greater than 100 µM. For the same compound, the TGI [14] was greater than 100 µM, the TGI [15] was greater than 100 µM and the TGI [16] was greater than 100 µM. It also gave a TGI [17] greater than 100 µM, a TGI [18] greater than 100 µM and a TGI [19] greater than 100 µM. It also gave a TGI [20] greater than 100 µM, a TGI [21] greater than 100 µM and a TGI [22] greater than 100 µM. It also gave a TGI [23] greater than 100 µM, a TGI [24] greater than 100 µM and a TGI [26] greater than 100 µM. For the same compound, the TGI [27] was greater than 100 µM, the TGI [29] was greater than 100 µM and the TGI [30] was greater than 100 µM. For the same compound, the TGI [58] was greater than 100 µM, the TGI [31] was greater than 100 µM and the TGI [32] was greater than 100 µM. It also gave a TGI [33] greater than 100 µM, a TGI [35] greater than 100 µM and a TGI [36] greater than 100 µM. It also gave a TGI [38] of 71.7 µM, a TGI [39] greater than 100 µM and a TGI [40] greater than 100 µM. The TGI [41] was greater than 100 µM, the TGI [42] was greater than 100 µM and the TGI [43] was greater than 100 µM. The TGI [44] was greater than 100 µM, the TGI [45] was greater than 100 µM and the TGI [46] was greater than 100 µM. For the same compound, the TGI [47] was greater than 100 µM, the TGI [48] was greater than 100 µM and the TGI [49] was greater than 100 µM. The TGI [50] was greater than 100 µM, the TGI [51] was greater than 100 µM and the TGI [52] was greater than 100 µM. For the same compound, the TGI [53] was greater than 100 µM, the TGI [54] was greater than 100 µM and the TGI [55] was greater than 100 µM. The TGI [56] was greater than 100 µM and the TGI [57] was greater than 100 µM.

`CCOc1ccc(NC(=O)C(=O)CC(=O)c2sc(NNC(C)=O)nc2C)cc1` showed a TGI [1] greater than 100 µM, a TGI [2] greater than 100 µM and a TGI [3] greater than 100 µM. For the same compound, the TGI [4] was greater than 100 µM, the TGI [5] was greater than 100 µM and the TGI [6] was greater than 100 µM. The TGI [7] was greater than 100 µM, the TGI [9] was greater than 100 µM and the TGI [10] was greater than 100 µM. It also gave a TGI [11] greater than 100 µM, a TGI [12] greater than 100 µM and a TGI [14] greater than 100 µM. It also gave a TGI [15] greater than 100 µM, a TGI [16] greater than 100 µM and a TGI [18] greater than 100 µM. For the same compound, the TGI [19] was greater than 100 µM, the TGI [21] was greater than 100 µM and the TGI [22] was greater than 100 µM. It also gave a TGI [23] greater than 100 µM, a TGI [24] greater than 100 µM and a TGI [25] greater than 100 µM. The TGI [26] was greater than 100 µM, the TGI [28] was greater than 100 µM and the TGI [29] was greater than 100 µM. The TGI [30] was greater than 100 µM, the TGI [58] was greater than 100 µM and the TGI [31] was greater than 100 µM. The TGI [32] was greater than 100 µM, the TGI [33] was greater than 100 µM and the TGI [34] was greater than 100 µM. The TGI [35] was greater than 100 µM, the TGI [36] was greater than 100 µM and the TGI [37] was greater than 100 µM. It also gave a TGI [38] greater than 100 µM, a TGI [39] greater than 100 µM and a TGI [40] greater than 100 µM. The TGI [41] was greater than 100 µM, the TGI [42] was greater than 100 µM and the TGI [43] was greater than 100 µM. The TGI [44] was greater than 100 µM, the TGI [45] was greater than 100 µM and the TGI [46] was greater than 100 µM. For the same compound, the TGI [47] was greater than 100 µM, the TGI [48] was greater than 100 µM and the TGI [49] was greater than 100 µM. It also gave a TGI [50] greater than 100 µM, a TGI [51] greater than 100 µM and a TGI [52] greater than 100 µM. It also gave a TGI [53] greater than 100 µM, a TGI [54] greater than 100 µM and a TGI [55] greater than 100 µM. It also gave a TGI [59] greater than 100 µM, a TGI [56] greater than 100 µM and a TGI [57] greater than 100 µM.

For `CP1(=O)CCCCC1`, the TGI [1] was greater than 100 µM, the TGI [2] was greater than 100 µM and the TGI [3] was greater than 100 µM. It also gave a TGI [4] greater than 100 µM, a TGI [5] greater than 100 µM and a TGI [6] greater than 100 µM. It also gave a TGI [7] greater than 100 µM, a TGI [8] greater than 100 µM and a TGI [9] greater than 100 µM. For the same compound, the TGI [11] was greater than 100 µM, the TGI [12] was greater than 100 µM and the TGI [13] was greater than 100 µM. For the same compound, the TGI [14] was greater than 100 µM, the TGI [15] was greater than 100 µM and the TGI [16] was greater than 100 µM. The TGI [17] was greater than 100 µM, the TGI [18] was greater than 100 µM and the TGI [19] was greater than 100 µM. It also gave a TGI [20] greater than 100 µM, a TGI [21] greater than 100 µM and a TGI [22] greater than 100 µM. It also gave a TGI [23] greater than 100 µM, a TGI [24] greater than 100 µM and a TGI [25] greater than 100 µM. It also gave a TGI [26] greater than 100 µM, a TGI [27] greater than 100 µM and a TGI [28] greater than 100 µM. The TGI [29] was greater than 100 µM, the TGI [30] was greater than 100 µM and the TGI [58] was greater than 100 µM. The TGI [31] was greater than 100 µM, the TGI [32] was greater than 100 µM and the TGI [33] was greater than 100 µM. It also gave a TGI [34] greater than 100 µM, a TGI [35] greater than 100 µM and a TGI [36] greater than 100 µM. It also gave a TGI [38] greater than 100 µM, a TGI [39] greater than 100 µM and a TGI [40] greater than 100 µM. It also gave a TGI [41] greater than 100 µM, a TGI [42] greater than 100 µM and a TGI [43] greater than 100 µM. It also gave a TGI [44] greater than 100 µM, a TGI [45] greater than 100 µM and a TGI [46] greater than 100 µM. It also gave a TGI [47] greater than 100 µM, a TGI [48] greater than 100 µM and a TGI [49] greater than 100 µM. The TGI [50] was greater than 100 µM, the TGI [51] was greater than 100 µM and the TGI [52] was greater than 100 µM. The TGI [53] was greater than 100 µM, the TGI [54] was greater than 100 µM and the TGI [55] was greater than 100 µM. For the same compound, the TGI [56] was greater than 100 µM and the TGI [57] was greater than 100 µM.
